Values joined by “and” are separate entries in the source; they are usually repeats but may differ in a detail not shown here. Equal values may be shown once. “Also recorded” adds a separate entry of the source. Read-outs that look alike come from different tables or passages of the source.
Tests used:
[1] = system: chymotrypsin-like enzymes; settings: cited from earlier work
BT-20 = format: cell-based, human; settings: for % DNA fragmentation: BT-20, UV 0.5 J/cm^2, 8 h, no inhibitor 44 ± 3.6
[2] = system: SEB-induced hepatotoxicity; format: in vivo, mice; settings: Gln + SEB + DK120 5 mg/kg
isolated U937 nuclei = assay: DNA fragmentation assay using isolated U937 nuclei; format: cell-based, human; settings: inhibitor 50 μM (FIG. 6B)
Procedure: U937 cells were labeled with ^3 H-thymidine by culturing overnight with isotope at 0.5 μCi/ml. The cells were pelleted, washed once, and the cytoplasmic membrane lysed by resuspending the cells in assay buffer (50 mM Tris, 250 mM sucrose 10 mM MgSO4, pH 7.5) plus 0.02% NP-40. Nuclei were then pelleted and resuspended in assay buffer at 1×10^6 /ml. The assay was set up in triplicate in flat bottom microtiter plates under sterile conditions. Nuclei (0.05 ml) were mixed with 0.05 ml of sample diluted in 50 mM Tris pH 7.5 or buffer alone to determine total counts. Plates were incubated for 5 h at 37° C. and then harvested by the addition of 0.1 ml of harvesting buffer (10 mM Tris, 10 mM EDTA, 0.3% Triton X-100, pH 7.5). Plates were harvested by filtration onto glass fiber paper and counted on a Packard Matrix 96 beta counter. Percent DNA fragmentation was calculated as follows: […]

3T3 = assay: Inhibition of UV-induced DNA fragmentation in 3T3 cells; format: cell-based, murine; settings: UV 0.5 J/cm^2, 8 h, no inhibitor 38 ± 1.9
Procedure: To determine if these findings were unique to U937 or if other cell lines also require protease activity to undergo apoptosis, the effects of several inhibitors on apoptosis induced by UV light in the human mammary carcinoma, BT-20, the murine fibroblast cell line, 3T3, and the human myeloid leukemia, HL-60 were tested. For the BT-20 and 3T3 cells, target cells were pretreated for one hour (with or without inhibitors as indicated in the table) and exposed to UV light at 0.5 J/cm^2 and then incubated for eight hours prior to assessing DNA fragmentation. HL-60 cells were pretreated for one hour (with or without inhibitors as indicated in the table) and exposed to UV at 0.2 J/cm^2 and then incubated for two hours prior to assessing DNA fragmentation.
DNA fragmentation assays were carried out according to the protocol of Wright S. C., et al. (1,992) J. Cell. Biochem. 48, 344-355. Target cells were labeled with ^3 H-thymidine and plated in triplicate in flat bottom microtiter plates. Cells were incubated for the indicated length of time for each experiment in the presence of TNF or various inhibitors. In some experiments, cells were treated with UV light at 245 nm using a UV Crosslinker (Fisher Scientific). Assays were harvested and counted on a Packard matrix 96 beta counter. Percent DNA fragmentation was calculated as for the nuclear assay described in Example 3. In assays to test the effects of various inhibitors, the pH of extra wells containing assay buffer, target cells, and each inhibitor was always checked at the beginning and end of each assay to assure that the pH remained at 7.5.

mice = assay: Toxicity of DK120 in mice on daily injection; format: in vivo
Procedure: In preliminary studies daily injection of mice with DK120 at 20 mg/kg was lethal. The reason for toxicity is not clear but may be related to the ability of DK120 to inhibit chymotrypsin-like enzymes that may be essential for the normal function of various tissues.

[3] = system: TNF-induced hepatocyte apoptosis; assay: TNF-induced hepatotoxicity in mice (serum transaminases); format: in vivo, Balb/c mice; settings: for AST: without DK120 78
Procedure: In this example the concept that a protease inhibitor such as DK120 may attenuate inappropriate apoptosis that causes tissue damage in systemic inflammatory response syndrome (SIRS) was tested. TNF-induced hepatocyte apoptosis in mice was performed as described by Leist et al. ((1995) J. Immunol. 154:1778-1786). Briefly, Balb/c mice were injected ip with […] murine TNF combined with […] Actinomycin D/mouse. Twelve h later, mice were anesthetized and bled from the heart to measure serum transaminase levels, which are standard clinically used indicators of liver damage. Mice that were treated with protease inhibitors were injected ip with these compounds 30 min. prior to TNF. Alanine aminotransferase (ALT) and aspartate aminotransferase (AST) were assayed using a commercially available kit (Sigma). […] However, treatment with DK120 caused a doss-dependent decrease in serum transaminase levels. […] However, a drug that nonspecifically blocks all apoptotic pathways that normally function to maintain homeostasis may not be clinically desirable. Subsequent studies were performed to determine if DK120 could also suppress hepatocyte apoptosis in response to a different stimulus.
^1 Mice (2 for each treatment) were injected ip +/- DK120 30 min prio
to TNF and Actinomycin D. Twelve h later serum transaminase levels were
To further explore the specificity of DK120 attenuation of TNF-induced hepatotoxicity, several compounds were tested that were found previously not to inhibit apoptotic protease proteolytic activity as measured against a synthetic substrate (data not shown). […] Therefore, the protection mediated by DK120 is not a property of any boron-containing molecule.
^1 Mice (3 for each treatment) were injected ip +/- the inhibitors 30
min prior to TNF and Actinomycin D. Twelve h later serum transaminase

U937 cells = assay: cells; format: cell-based, human
[4] = system: LPS-induced hepatotoxicity

C[C@H](NC(=O)OCc1ccccc1)C(=O)N[C@@H](C)C(=O)NC(Cc1ccccc1)B(O)O (stereo partly shown) [DK120, carbobenzoxy-ala-ala-borophe]
Inhibition of chymotrypsin / chymotrypsin-like enzymes [1]: reversible inhibitor of chymotrypsin; also recorded: potently inhibits chymotrypsin-like enzymes | % DNA fragmentation (BT-20; inhibitor 0.2 μM): 5 ± 8.7% | % DNA fragmentation (BT-20; inhibitor 1 μM): 0% | % DNA fragmentation (BT-20; inhibitor 5 μM): 0% | Effect on UV-induced DNA fragmentation (BT-20; summary of Table 2 (BT-20, 3T3, HL-60)): effectively blocked DNA fragmentation | % Mortality ([2]; without DK120 33): 0% | AST ([2]; without DK120 119): 72 +/- 13 U/ml | ALT ([2]; without DK120 339): 205 +/- 28 U/ml | Inhibition of nuclear DNA fragmenting activity of protease from UV-treated cells (isolated U937 nuclei): inhibited | % DNA fragmentation (3T3; inhibitor 1 μM): 24 ± 0.3% | % DNA fragmentation (3T3; inhibitor 5 μM): 19 ± 1.9% | Lethality (mice; daily injection, 20 mg/kg, preliminary studies): lethal | Toxicity of compound alone (mice; mouse, in vivo): relatively toxic | AST ([3]; Table 7, DK120 1 mg/kg ip 30 min prior to Actinomycin D + TNF, 12 h): 64 U/ml | ALT ([3]; Table 7, DK120 1 mg/kg ip 30 min prior to Actinomycin D + TNF, 12 h, without DK120 398): 232 U/ml | AST ([3]; Table 7, DK120 2.5 mg/kg ip 30 min prior to Actinomycin D + TNF, 12 h): 47 U/ml | ALT ([3]; Table 7, DK120 2.5 mg/kg ip 30 min prior to Actinomycin D + TNF, 12 h, without DK120 398): 145 U/ml | ALT ([3]; Table 7, DK120 5 mg/kg ip 30 min prior to Actinomycin D + TNF, 12 h, without DK120 398): 123 U/ml | AST ([3]; Table 7, DK120 10 mg/kg ip 30 min prior to Actinomycin D + TNF, 12 h): 56 U/ml | ALT ([3]; Table 7, DK120 10 mg/kg ip 30 min prior to Actinomycin D + TNF, 12 h, without DK120 398): 50 U/ml | Protection from TNF-induced hepatotoxicity ([3]; Table 10, 10 mg/kg): reduced levels of ALT to close to that of Actinomycin D alone | Effect on TNF-induced serum transaminase levels ([3]; ip 30 min prior to TNF): reduced transaminase to levels very close to those seen in mice injected with Actinomycin D only | ALT ([3]; mouse, in vivo): 190 +/- 21 U/ml and 141 +/- 20 U/ml | IC50 (U937 cells; Homo sapiens, U-937, read-out: IC50 (Active Concentration), TNF and UV-light induced apoptosis): 1.2 µM | Concentration of maximum suppression of DNA fragmentation (U937 cells; U937, TNF 1.0 ng/ml plus cycloheximide or UV 0.1 J/cm^2, 1 h pretreatment (FIG. 1)): 2.0 µM | Effect on DNA fragmentation induced by TNF or UV light (U937 cells; U937 cells, result in words): suppressed DNA fragmentation; also recorded: dose-dependently inhibit DNA fragmentation | % Mortality ([4]; Gln + LPS + DK120 5 mg/kg, without DK120 33): 0% | AST ([4]; Gln + LPS + DK120 5 mg/kg, without DK120 100): 79 +/- 10 U/ml | ALT ([4]; Gln + LPS + DK120 5 mg/kg, without DK120 334): 182 +/- 17 U/ml | Effect on serum transaminase levels after LPS or SEB ([4]; LPS or SEB plus Gln, DK120 30 min prior): significant reduction in the serum transaminase levels | Effect on LPS-induced mortality, long term survival (FIG. 9) ([4]; mouse, in vivo): could delay or prevent LPS-induced mortality
